From ChEMBL document CHEMBL3727369, “2-cyanophenyl fused heterocyclic compounds, and compositions and uses thereof” (2013)

Each compound was assayed against P2X3 receptor (assay: Antagonist activity against rat or human P2X3 receptor expressed in HEK293/1321N1 cells assessed as inhibition of alpha,beta-meATP/ATP-induced calcium influx by Fluo-4 dye based FLIPR assay).
Assay type: functional, cell-based

Going from `N#Cc1cc(Cl)ccc1N1CCc2ncnc(N[C@H](CCO)c3ccc(C(F)(F)F)nc3)c2C1` to `N#Cc1cc(Cl)ccc1N1CCc2ncnc(N[C@H](CO)c3ccc(C(F)(F)F)nc3)c2C1`, the IC50 falls from 90 nM to 54 nM (1.7-fold). The second is the more potent here.

First: Cc1ccc(N2CCc3ncnc(NCc4ccccn4)c3C2)c(C#N)c1
Second: Cc1ccc(N2CCc3ncnc(NCc4ccc(Cl)cn4)c3C2)c(C#N)c1
The IC50 of the first is 6.8-fold higher: 196 nM for the first, 29 nM for the second.

Compared with `Cc1ccc(N2CCc3ncnc(NCc4ccc(C5CC5)cn4)c3C2)c(C#N)c1`, `CCc1ccc(CNc2ncnc3c2CN(c2ccc(C)cc2C#N)CC3)cn1` is 6.2-fold lower in IC50: 236 nM for the first, 38 nM for the second. The second is the more potent here.

`COc1ccc(CNc2ncnc3c2CN(c2ccc(Cl)cc2C#N)CC3)cn1` and `COc1ccc(CNc2ncnc3c2CN(c2ccc(Br)cc2C#N)CC3)cn1` are within 1.5-fold of each other in IC50: 59 nM for the first, 78 nM for the second.

First: CN(C)c1ccc(CNc2ncnc3c2CN(c2ccc(Cl)cc2C#N)CC3)cn1
Second: N#Cc1cc(Cl)ccc1N1CCc2ncnc(NCc3ccc(C(F)(F)F)nc3)c2C1
The IC50 of the first is 17-fold higher: 628 nM for the first, 37 nM for the second. The second is the more potent here.

`N#Cc1cc(Cl)ccc1N1CCc2ncnc(NCc3ccc(Cl)c(-n4cnnc4)c3)c2C1` and `Cc1ccc(N2CCc3ncnc(NCc4ccc(Cl)c(-n5cnnc5)c4)c3C2)c(C#N)c1` are within 1.5-fold of each other in IC50: 41 nM for the first, 31 nM for the second.

Compared with `N#Cc1cc(Br)ccc1N1CCc2ncnc(NCc3ccc(C(F)(F)F)nc3)c2C1`, `Cc1ccc(N2CCc3ncnc(NCc4ccc(C(F)(F)F)nc4)c3C2)c(C#N)c1` is 4.2-fold lower in IC50: 80 nM for the first, 19 nM for the second. The second is the more potent here.

Going from `N#Cc1cc(C2CC2)ccc1N1CCc2ncnc(NCc3ccc(C(F)(F)F)nc3)c2C1` to `N#Cc1cc(F)ccc1N1CCc2ncnc(NCc3ccc(C(F)(F)F)nc3)c2C1`, the IC50 falls from 870 nM to 85 nM (10-fold).

First: Cc1ccc(N2CCc3ncnc(NCc4ncc(Cl)cc4Cl)c3C2)c(C#N)c1
Second: N#Cc1cc(Cl)ccc1N1CCc2ncnc(NCc3ncc(C(F)(F)F)cc3Cl)c2C1
The IC50 of the first is 2.2-fold lower: 41 nM for the first, 91 nM for the second. The first is the more potent here.

Going from `Cc1ccc(N2CCc3ncnc(NCc4ccc5ccccc5n4)c3C2)c(C#N)c1` to `Cc1ccc(N2CCc3ncnc(NCc4ccc5cccnc5c4)c3C2)c(C#N)c1`, the IC50 falls from 156 nM to 20 nM (7.8-fold). The second is the more potent here.

Going from `COc1ccc([C@@H](CC(=O)O)Nc2ncnc3c2CN(c2ccc(Cl)cc2C#N)CC3)cn1` to `COc1ccc([C@@H](CO)Nc2ncnc3c2CN(c2ccc(Cl)cc2C#N)CC3)cn1`, the IC50 falls from 1380 nM to 23 nM (60-fold).

Compared with `Cc1ccc(N2CCc3ncnc(NCc4ccc(C)c(I)c4)c3C2)c(C#N)c1`, `Cc1ccc(N2CCc3ncnc(NCc4ccc(C)c(F)c4)c3C2)c(C#N)c1` is 5.8-fold lower in IC50: 512 nM for the first, 89 nM for the second.

Going from `N#Cc1cc(Cl)ccc1N1CCc2ncnc(N[C@H](CO)c3ccc(C(F)F)nc3)c2C1` to `N#Cc1cc(Cl)ccc1N1CCc2ncnc(N[C@H](CCO)c3ccc(C(F)F)nc3)c2C1`, the IC50 rises from 16 nM to 32 nM (2-fold). The first is the more potent here.

Compared with `N#Cc1ccccc1N1CCc2ncnc(NCc3ccc(C(F)(F)F)nc3)c2C1`, `N#Cc1cc(C(F)(F)F)ccc1N1CCc2ncnc(NCc3ccc(C(F)(F)F)nc3)c2C1` is 29-fold higher in IC50: 63 nM for the first, 1840 nM for the second. The first is the more potent here.

Going from `COc1ccc([C@H](CC(=O)OC(C)(C)C)Nc2ncnc3c2CN(c2ccc(Cl)cc2C#N)CC3)cn1` to `COc1ccc([C@@H](CCO)Nc2ncnc3c2CN(c2ccc(Cl)cc2C#N)CC3)cn1`, the IC50 falls from over 10000 nM to 33 nM.

`Cc1ccc(N2CCc3ncnc(NCc4ccc(Cl)nc4)c3C2)c(C#N)c1` and `Cc1ccc(N2CCc3ncnc(NCc4ccc5ocnc5c4)c3C2)c(C#N)c1` are within 1.5-fold of each other in IC50: 11 nM for the first, 15 nM for the second.

First: Cc1ccc(N2CCc3ncnc(N[C@H](CCO)c4ccc(C(F)(F)F)nc4)c3C2)c(C#N)c1
Second: Cc1ccc(N2CCc3ncnc(N[C@@H](CCO)c4ccc(C(F)(F)F)nc4)c3C2)c(C#N)c1
The IC50 of the first is 35-fold lower: 23 nM for the first, 806 nM for the second. The first is the more potent here.

Going from `Cc1ccc(N2CCc3ncnc(NCc4ccc5nccnc5c4)c3C2)c(C#N)c1` to `N#Cc1cc(Cl)ccc1N1CCc2ncnc(NCc3ccc4nccnc4c3)c2C1`, the IC50 rises from 34 nM to 125 nM (3.7-fold).

Going from `Cc1nc(C(F)(F)F)ccc1CNc1ncnc2c1CN(c1ccc(Cl)cc1C#N)CC2` to `N#Cc1cc(Cl)ccc1N1CCc2ncnc(NCc3ccc(C(F)(F)F)cn3)c2C1`, the IC50 falls from 187 nM to 118 nM (1.6-fold).

Going from `Cc1ccc(CNc2ncnc3c2CN(c2ccc(Cl)cc2C#N)CC3)cc1S(C)(=O)=O` to `Cc1ccc(N2CCc3ncnc(NCc4ccc(C)c(S(C)(=O)=O)c4)c3C2)c(C#N)c1`, the IC50 falls from 40 nM to 16 nM (2.5-fold). The second is the more potent here.

Going from `Cc1ccc(N2CCc3ncnc(NCc4ccc(C)c(C#N)c4)c3C2)c(C#N)c1` to `CSc1cc(CNc2ncnc3c2CN(c2ccc(C)cc2C#N)CC3)ccc1C`, the IC50 rises from 63 nM to 474 nM (7.5-fold). The first is the more potent here.

First: Cc1ccc(N2CCc3ncnc(NCc4ccc(C)c(-n5cncn5)c4)c3C2)c(C#N)c1
Second: Cc1ccc(N2CCc3ncnc(NCc4ccc(C)c(N5CCOCC5)c4)c3C2)c(C#N)c1
The IC50 of the first is 4.6-fold lower: 21 nM for the first, 96 nM for the second. The first is the more potent here.

First: Cc1ccc(N2CCc3ncnc(N[C@H](CO)c4ccc(C(F)(F)F)nc4)c3C2)c(C#N)c1
Second: Cc1ccc(N2CCc3ncnc(NC(CCO)c4ccc(C(F)(F)F)nc4)c3C2)c(C#N)c1 (configuration not stated)
The IC50 of the first is 2.6-fold lower: 21 nM for the first, 55 nM for the second. The first is the more potent here.

First: Cc1ccc(N2CCc3ncnc(NCc4cccc(C#N)c4)c3C2)c(C#N)c1
Second: Cc1ccc(N2CCc3ncnc(NCc4cccc(-n5cnnc5)c4)c3C2)c(C#N)c1
The IC50 of the first is 2.8-fold higher: 183 nM for the first, 65 nM for the second.

First: N#Cc1cc(Cl)ccc1N1CCc2ncnc(NCc3cccc(-n4cnnc4)c3)c2C1
Second: N#Cc1cc(Cl)ccc1N1CCc2ncnc(NCc3ccn4ccnc4c3)c2C1
The IC50 of the first is 2.3-fold higher: 284 nM for the first, 122 nM for the second.

First: Cc1ccc(N2CCc3ncnc(NCc4ccn5ccnc5c4)c3C2)c(C#N)c1
Second: Cc1ccc(N2CCc3ncnc(NCc4ccc5cc[nH]c5c4)c3C2)c(C#N)c1
The IC50 of the first is 24-fold lower: 18 nM for the first, 423 nM for the second.

First: CC(=O)OCC[C@@H](Nc1ncnc2c1CN(c1ccc(C)cc1C#N)CC2)c1ccc(C(F)(F)F)nc1
Second: Cc1ccc(N2CCc3ncnc(N[C@H](CCO)c4ccc(C(F)F)nc4)c3C2)c(C#N)c1
The IC50 of the first is 10-fold higher: 130 nM for the first, 13 nM for the second.

First: Cc1ccc(N2CCc3ncnc(NCc4ccc5c(c4)OCO5)c3C2)c(C#N)c1
Second: Cc1ccc(N2CCc3ncnc(NCc4ccc(Cl)c(S(C)(=O)=O)c4)c3C2)c(C#N)c1
The IC50 of the first is 1.5-fold higher: 56 nM for the first, 37 nM for the second.

These compounds were tested against T1, P2X2/P2X3 heterotrimeric receptor (Homo sapiens, UniProt P56373+Q9UBL9) (assay: Antagonist activity against human P2X2/3 receptor expressed in HEK293/1321N1 cells assessed as inhibition of alpha,beta-meATP/ATP-induced calcium influx by Fluo-4 dye based FLIPR assay).
T1 sequence (Q9UBL9 whole entry): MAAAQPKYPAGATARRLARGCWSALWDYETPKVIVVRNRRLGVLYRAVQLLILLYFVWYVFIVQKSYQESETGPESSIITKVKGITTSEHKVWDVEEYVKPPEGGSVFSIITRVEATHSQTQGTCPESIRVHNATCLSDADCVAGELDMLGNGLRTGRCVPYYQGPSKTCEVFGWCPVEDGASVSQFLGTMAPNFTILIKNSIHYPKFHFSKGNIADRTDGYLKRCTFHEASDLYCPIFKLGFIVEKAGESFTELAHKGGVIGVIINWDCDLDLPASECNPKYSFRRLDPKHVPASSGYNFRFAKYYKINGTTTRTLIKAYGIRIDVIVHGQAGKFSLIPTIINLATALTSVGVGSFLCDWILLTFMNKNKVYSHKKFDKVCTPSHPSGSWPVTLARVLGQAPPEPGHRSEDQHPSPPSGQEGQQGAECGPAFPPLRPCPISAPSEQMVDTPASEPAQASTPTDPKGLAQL
T1 sequence (P56373 whole entry): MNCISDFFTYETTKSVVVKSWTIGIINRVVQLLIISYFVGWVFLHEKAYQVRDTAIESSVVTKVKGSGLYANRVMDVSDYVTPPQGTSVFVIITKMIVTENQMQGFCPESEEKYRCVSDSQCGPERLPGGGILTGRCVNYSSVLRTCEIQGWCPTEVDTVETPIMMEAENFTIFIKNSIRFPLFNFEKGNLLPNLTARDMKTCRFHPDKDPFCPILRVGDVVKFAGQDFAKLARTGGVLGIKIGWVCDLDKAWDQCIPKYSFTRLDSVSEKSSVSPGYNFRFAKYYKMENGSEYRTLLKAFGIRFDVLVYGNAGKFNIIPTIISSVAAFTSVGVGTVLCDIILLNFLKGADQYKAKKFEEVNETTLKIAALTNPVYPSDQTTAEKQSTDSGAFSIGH
Assay type: functional, cell-based

`COc1ccc([C@H](CC(=O)OC(C)(C)C)Nc2ncnc3c2CN(c2ccc(Cl)cc2C#N)CC3)cn1` gave an IC50 of over 10000 nM.
